According to ChEMBL document CHEMBL4800726, “Data for DCP probe MSC-4381” (2021):
pKi: −log10 of the molar value.

Assays:
[1] = target: Sodium-dependent dopamine transporter (Homo sapiens, UniProt Q01959); assay: GPCRScan assay: inhibition of DAT; set-up: radioligand conc. used [nm] 3.6 – 16.0, parental cells stable HEK
[2] = target: Monocarboxylate transporter 1 (Homo sapiens, UniProt P53985); assay: Lactate efflux inhibition assay (SNU-398)
[3] = target: Monocarboxylate transporter 1/4 (Homo sapiens, UniProt P53985+O15427); assay: Lactate efflux inhibition assay (MiaPaCa2 ); assay type: protein assay
[4] = target: 5-hydroxytryptamine receptor 1B (Homo sapiens) (UniProt P28222); details: Compound concentration 10.0 uM
[5] = target: 5-hydroxytryptamine receptor 1E (Homo sapiens, UniProt P28566); details: Compound concentration 10.0 uM
[6] = target: GABA-A receptor; anion channel (Rattus norvegicus) (UniProt O09028+P15431+P18506+P18508+P19969+P20236+P23574+P23576+P28471+P28473+P30191+P62813+P63079+P63138+Q91ZM7+Q9ES14); details: Compound concentration 10.0 uM
[7] = target: Sigma intracellular receptor 2 (Homo sapiens) (UniProt Q5BJF2); details: Compound concentration 10.0 uM
[8] = target: Adrenergic receptor alpha-1 (Rattus norvegicus) (UniProt P15823+P23944+P43140); assay: Alpha1 (non-selective) Eurofins-Cerep binding assay; assay type: protein assay; set-up: ligand concentration 0.25 nM; details: filed as antagonist, Compound concentration 10.0 uM
[9] = target: C-X-C chemokine receptor type 2 (Homo sapiens) (UniProt P25025); assay: CXCR2 (IL-8B) (h) Eurofins-Cerep binding assay; set-up: ligand concentration 0.025 nM; details: filed as agonist, Compound concentration 10.0 uM
[10] = target: T1, Muscarinic acetylcholine receptor M1 (Homo sapiens) (UniProt P11229); assay: M1 (h) Eurofins-Cerep binding assay; set-up: ligand concentration 2 nM; details: filed as antagonist, Compound concentration 10.0 uM
T1 sequence (whole entry): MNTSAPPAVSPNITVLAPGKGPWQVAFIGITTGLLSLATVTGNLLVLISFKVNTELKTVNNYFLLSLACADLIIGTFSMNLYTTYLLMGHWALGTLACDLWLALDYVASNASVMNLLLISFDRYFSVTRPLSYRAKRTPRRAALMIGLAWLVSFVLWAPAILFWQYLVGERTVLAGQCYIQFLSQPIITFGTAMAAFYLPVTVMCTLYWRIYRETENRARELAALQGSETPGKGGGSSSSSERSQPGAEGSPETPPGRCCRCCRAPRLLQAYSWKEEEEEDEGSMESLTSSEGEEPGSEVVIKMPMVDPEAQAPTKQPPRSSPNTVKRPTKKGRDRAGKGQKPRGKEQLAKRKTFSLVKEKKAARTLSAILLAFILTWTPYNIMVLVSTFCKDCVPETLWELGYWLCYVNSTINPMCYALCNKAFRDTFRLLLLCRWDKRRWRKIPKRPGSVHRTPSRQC

[11] = target: T2, Muscarinic acetylcholine receptor M5 (Homo sapiens) (UniProt P08912); assay: M5 (h) Eurofins-Cerep binding assay; set-up: ligand concentration 0.3 nM; details: filed as antagonist, Compound concentration 10.0 uM
T2 sequence (whole entry): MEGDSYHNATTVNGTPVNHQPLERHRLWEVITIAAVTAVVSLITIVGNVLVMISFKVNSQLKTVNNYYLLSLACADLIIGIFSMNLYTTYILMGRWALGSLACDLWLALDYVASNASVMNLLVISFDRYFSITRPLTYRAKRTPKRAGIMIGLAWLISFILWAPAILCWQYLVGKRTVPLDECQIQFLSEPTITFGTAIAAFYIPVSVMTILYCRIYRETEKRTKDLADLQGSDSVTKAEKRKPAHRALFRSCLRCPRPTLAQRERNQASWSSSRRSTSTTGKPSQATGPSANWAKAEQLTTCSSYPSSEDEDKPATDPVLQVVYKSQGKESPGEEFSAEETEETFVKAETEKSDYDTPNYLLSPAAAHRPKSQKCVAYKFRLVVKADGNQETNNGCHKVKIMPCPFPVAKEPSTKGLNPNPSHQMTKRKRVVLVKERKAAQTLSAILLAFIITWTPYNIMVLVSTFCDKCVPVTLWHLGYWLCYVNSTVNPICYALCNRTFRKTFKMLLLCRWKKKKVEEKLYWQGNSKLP

[12] = target: Neurotensin receptor type 1 (Homo sapiens) (UniProt P30989); assay: NTS1 (NT1) (h) Eurofins-Cerep binding assay; set-up: ligand concentration 0.05 nM; details: filed as agonist, Compound concentration 10.0 uM
[13] = target: Nociceptin receptor (Homo sapiens) (UniProt P41146); assay: NOP (ORL1) (h) Eurofins-Cerep binding assay; set-up: ligand concentration 0.06 nM; details: filed as agonist, Compound concentration 10.0 uM
[14] = target: 5-hydroxytryptamine receptor 1B (Homo sapiens) (UniProt P28222); assay: 5-HT1B(h) Eurofins-Cerep binding assay; set-up: ligand concentration 1 nM; details: filed as antagonist, Compound concentration 10.0 uM
[15] = target: T3, 5-hydroxytryptamine receptor 3A (Homo sapiens) (UniProt P46098); assay: 5-HT3 (h) Eurofins-Cerep binding assay; set-up: ligand concentration 0.5 nM; details: filed as antagonist, Compound concentration 10.0 uM
T3 sequence (whole entry): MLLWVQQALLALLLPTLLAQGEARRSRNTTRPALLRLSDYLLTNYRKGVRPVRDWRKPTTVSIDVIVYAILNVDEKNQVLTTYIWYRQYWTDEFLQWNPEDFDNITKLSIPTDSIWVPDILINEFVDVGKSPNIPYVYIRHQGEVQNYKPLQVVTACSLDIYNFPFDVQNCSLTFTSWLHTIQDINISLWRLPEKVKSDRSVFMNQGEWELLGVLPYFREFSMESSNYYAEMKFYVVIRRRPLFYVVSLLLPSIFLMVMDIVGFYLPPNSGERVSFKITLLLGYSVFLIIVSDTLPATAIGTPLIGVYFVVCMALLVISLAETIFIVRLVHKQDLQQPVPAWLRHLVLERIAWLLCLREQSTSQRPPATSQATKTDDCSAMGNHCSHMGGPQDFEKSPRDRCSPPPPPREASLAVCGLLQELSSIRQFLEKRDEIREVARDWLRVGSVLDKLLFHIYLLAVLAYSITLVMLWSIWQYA

[16] = target: Vasopressin V1a receptor (Homo sapiens) (UniProt P37288); assay: V1 a (h) Eurofins-Cerep binding assay; set-up: ligand concentration 0.3 nM; details: filed as agonist, Compound concentration 10.0 uM
Rattus norvegicus = organism: Rattus norvegicus; assay: SKCa channel Eurofins-Cerep binding assay; set-up: ligand concentration 0.007 nM; details: filed as antagonist, Compound concentration 10.0 uM
Na+ channel (site 2) = Na+ channel (site 2) (Rattus norvegicus, UniProt F1LQQ7+O08562+O88420+O88457+P04774+P04775+P08104+P15389+P15390+Q62968); assay: Na+ channel (site 2) Eurofins-Cerep binding assay; assay type: protein assay; set-up: incubation time 60 min, incubation temperature 37°C, ligand concentration 10 nM; details: rat cerebral cortex, probe [3H]batrachotoxin, compound concentration 10 uM, read-out: % Inhibition of Control Specific Binding (Mean n=2)

Chain of Sodium-dependent dopamine transporter (Q01959 whole entry): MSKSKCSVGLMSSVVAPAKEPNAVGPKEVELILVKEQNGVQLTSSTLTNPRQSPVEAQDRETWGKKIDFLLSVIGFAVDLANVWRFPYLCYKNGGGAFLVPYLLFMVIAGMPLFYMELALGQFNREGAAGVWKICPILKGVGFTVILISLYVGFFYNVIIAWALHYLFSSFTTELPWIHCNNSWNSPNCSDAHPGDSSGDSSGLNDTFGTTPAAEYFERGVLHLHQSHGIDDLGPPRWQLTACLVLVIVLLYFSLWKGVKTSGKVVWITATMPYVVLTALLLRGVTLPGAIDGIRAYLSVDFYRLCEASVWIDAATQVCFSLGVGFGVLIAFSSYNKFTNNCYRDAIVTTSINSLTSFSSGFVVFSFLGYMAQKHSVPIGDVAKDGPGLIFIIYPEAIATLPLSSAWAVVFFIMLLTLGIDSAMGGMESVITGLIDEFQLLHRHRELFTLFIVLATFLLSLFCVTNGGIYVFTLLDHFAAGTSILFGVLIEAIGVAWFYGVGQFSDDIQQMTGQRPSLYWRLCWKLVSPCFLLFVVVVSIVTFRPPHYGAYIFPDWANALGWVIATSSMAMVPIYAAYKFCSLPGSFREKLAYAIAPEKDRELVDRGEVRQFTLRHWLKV
Chain of 5-hydroxytryptamine receptor 1B (Homo sapiens) (P28222 whole entry): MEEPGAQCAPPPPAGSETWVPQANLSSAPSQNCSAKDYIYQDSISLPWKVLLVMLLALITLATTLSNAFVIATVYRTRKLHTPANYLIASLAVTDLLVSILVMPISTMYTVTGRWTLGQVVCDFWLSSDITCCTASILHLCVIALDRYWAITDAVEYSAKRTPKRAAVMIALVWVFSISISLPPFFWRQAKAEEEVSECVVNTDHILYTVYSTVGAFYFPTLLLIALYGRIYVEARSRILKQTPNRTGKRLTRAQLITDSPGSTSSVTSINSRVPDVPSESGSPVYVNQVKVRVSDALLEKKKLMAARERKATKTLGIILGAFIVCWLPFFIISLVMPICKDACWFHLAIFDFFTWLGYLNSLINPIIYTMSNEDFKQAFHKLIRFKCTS
Chain of 5-hydroxytryptamine receptor 1E (P28566 whole entry): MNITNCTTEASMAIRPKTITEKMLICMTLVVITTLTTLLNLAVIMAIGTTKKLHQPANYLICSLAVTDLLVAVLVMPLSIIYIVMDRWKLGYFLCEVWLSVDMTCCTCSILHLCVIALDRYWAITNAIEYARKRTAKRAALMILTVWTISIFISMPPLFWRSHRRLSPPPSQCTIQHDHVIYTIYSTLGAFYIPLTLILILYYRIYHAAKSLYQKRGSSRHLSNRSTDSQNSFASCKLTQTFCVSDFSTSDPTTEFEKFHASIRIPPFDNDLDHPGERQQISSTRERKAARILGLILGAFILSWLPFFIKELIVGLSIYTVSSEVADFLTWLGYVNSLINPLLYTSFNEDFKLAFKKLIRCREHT
Chain of C-X-C chemokine receptor type 2 (Homo sapiens) (P25025 whole entry): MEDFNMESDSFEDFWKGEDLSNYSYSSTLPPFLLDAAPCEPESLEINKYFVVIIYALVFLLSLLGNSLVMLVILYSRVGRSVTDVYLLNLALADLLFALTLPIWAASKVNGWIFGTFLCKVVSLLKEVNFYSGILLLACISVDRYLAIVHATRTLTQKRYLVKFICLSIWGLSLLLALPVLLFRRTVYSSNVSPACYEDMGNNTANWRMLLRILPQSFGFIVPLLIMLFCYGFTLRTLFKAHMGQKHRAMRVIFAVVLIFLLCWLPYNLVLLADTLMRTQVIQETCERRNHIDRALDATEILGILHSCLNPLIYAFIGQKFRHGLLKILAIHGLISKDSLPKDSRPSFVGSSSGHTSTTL
Chain of Vasopressin V1a receptor (Homo sapiens) (P37288 whole entry, looked up): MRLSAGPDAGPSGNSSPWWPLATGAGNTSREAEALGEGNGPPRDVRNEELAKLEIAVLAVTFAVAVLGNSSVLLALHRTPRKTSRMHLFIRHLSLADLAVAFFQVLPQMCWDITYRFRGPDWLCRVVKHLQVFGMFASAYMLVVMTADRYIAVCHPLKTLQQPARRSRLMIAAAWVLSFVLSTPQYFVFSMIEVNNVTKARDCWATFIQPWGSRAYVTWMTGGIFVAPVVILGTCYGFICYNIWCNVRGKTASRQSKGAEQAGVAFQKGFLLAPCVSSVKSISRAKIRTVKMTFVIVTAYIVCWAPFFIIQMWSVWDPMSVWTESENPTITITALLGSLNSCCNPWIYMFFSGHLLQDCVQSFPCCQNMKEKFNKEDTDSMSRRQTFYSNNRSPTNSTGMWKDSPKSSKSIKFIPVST
Chain of Nociceptin receptor (Homo sapiens) (P41146 whole entry): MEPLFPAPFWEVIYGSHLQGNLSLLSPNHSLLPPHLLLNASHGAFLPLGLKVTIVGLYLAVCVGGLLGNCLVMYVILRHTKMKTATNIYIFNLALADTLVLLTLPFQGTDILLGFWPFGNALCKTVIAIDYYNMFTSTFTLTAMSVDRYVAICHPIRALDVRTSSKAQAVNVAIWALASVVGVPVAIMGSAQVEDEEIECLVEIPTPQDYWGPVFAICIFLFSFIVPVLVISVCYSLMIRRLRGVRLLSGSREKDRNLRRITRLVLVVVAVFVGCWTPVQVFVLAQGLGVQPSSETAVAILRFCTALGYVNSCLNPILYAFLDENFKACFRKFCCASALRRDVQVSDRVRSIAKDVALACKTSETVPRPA
Chain of Neurotensin receptor type 1 (Homo sapiens) (P30989 whole entry): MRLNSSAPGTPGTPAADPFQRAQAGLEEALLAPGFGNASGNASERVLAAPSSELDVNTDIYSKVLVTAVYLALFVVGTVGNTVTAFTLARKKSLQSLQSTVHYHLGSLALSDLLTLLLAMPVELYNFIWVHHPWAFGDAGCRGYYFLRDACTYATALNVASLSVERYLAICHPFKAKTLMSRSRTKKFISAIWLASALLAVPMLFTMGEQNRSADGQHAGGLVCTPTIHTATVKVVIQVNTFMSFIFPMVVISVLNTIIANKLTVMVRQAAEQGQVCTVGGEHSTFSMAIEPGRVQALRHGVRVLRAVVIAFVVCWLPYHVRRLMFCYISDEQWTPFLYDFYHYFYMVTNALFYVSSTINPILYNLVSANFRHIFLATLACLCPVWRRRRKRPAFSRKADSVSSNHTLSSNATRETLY
Chain of Sigma intracellular receptor 2 (Homo sapiens) (Q5BJF2 whole entry): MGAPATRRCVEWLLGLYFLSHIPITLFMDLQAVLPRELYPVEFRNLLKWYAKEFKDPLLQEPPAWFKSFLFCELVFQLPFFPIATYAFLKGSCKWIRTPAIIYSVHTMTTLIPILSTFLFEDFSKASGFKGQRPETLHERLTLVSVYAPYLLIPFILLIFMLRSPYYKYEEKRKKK
Chain of Monocarboxylate transporter 1 (P53985 whole entry): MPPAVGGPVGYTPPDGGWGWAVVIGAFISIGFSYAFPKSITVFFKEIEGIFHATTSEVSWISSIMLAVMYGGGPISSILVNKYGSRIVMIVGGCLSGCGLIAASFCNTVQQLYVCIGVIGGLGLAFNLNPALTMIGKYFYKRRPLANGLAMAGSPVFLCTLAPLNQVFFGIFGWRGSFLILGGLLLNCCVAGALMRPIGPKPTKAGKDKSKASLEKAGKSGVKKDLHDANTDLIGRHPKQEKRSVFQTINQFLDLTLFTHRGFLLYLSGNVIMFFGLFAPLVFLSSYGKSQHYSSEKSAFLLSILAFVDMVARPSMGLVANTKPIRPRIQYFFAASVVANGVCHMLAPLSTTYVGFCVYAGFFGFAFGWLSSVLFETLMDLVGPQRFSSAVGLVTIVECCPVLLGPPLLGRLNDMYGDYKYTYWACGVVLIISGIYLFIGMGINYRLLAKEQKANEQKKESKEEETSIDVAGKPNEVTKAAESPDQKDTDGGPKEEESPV

In the case of `COc1cc(C(=O)O)ncc1C#Cc1ccccc1NS(=O)(=O)c1cccc2c(N(C)C)ccnc12` [MSC-0516], the pKi ([1]; read-out: Ki) was 5.02, the Ki ([1]; read-out: pKi (converted)) was 9.55 µM and the IC50 [2] was > 4 µM (not active). For the same compound, the IC50 [3] was greater than 4 µM, the inhibition [4] was 10.6% and the inhibition [5] was 20.6%. The inhibition [6] was 19.4% and the inhibition [7] was 25%.

For `CCOc1ccc(S(=O)(=O)Nc2ccc(Cl)cc2C#Cc2cnc(C(=O)O)cc2OC)c2ncccc12` [MSC-4381], the % Inhibition of Control Specific Binding (Mean n=2) [8] was 6.6%, the % Inhibition of Control Specific Binding (Mean n=2) [9] was 7.3% and the % Inhibition of Control Specific Binding (Mean n=2) [10] was 4.6%. The % Inhibition of Control Specific Binding (Mean n=2) [11] was -3.3%, the % Inhibition of Control Specific Binding (Mean n=2) [12] was -10.4% and the % Inhibition of Control Specific Binding (Mean n=2) [13] was -14.7%. It also gave a % Inhibition of Control Specific Binding (Mean n=2) [14] of -15.6%, a % Inhibition of Control Specific Binding (Mean n=2) [15] of -8% and a % Inhibition of Control Specific Binding (Mean n=2) [16] of 92.3%. It also gave a % Inhibition of Control Specific Binding (Mean n=2) (Rattus norvegicus) of -6.7% and an inhibition at 60 min, 10 µM (Na+ channel (site 2)) of -4.9%.
